From PMC7217877, “N-AS-triggered SPMs are direct regulators of microglia in a model of Alzheimer’s disease” (Nature Communications, 2020)
Values joined by “and” are separate entries in the source; they are usually repeats but may differ in a detail not shown here. Equal entries are not always repeated.

B1: Sphk1: purified sphingosine kinase1 enzyme (Cayman, 10348) supplemented to cell lysates (protein, UniProt Q9NYA1 1-384, looked up)
Sphingosine kinase 1: MDPAGGPRGVLPRPCRVLVLLNPRGGKGKALQLFRSHVQPLLAEAEISFTLMLTERRNHARELVRSEELGRWDALVVMSGDGLMHEVVNGLMERPDWETAIQKPLCSLPAGSGNALAASLNHYAGYEQVTNEDLLTNCTLLLCRRLLSPMNLLSLHTASGLRLFSVLSLAWGFIADVDLESEKYRRLGEMRFTLGTFLRLAALRTYRGRLAYLPVGRVGSKTPASPVVVQQGPVDAHLVPLEEPVPSHWTVVPDEDFVLVLALLHSHLGSEMFAAPMGRCAAGVMHLFYVRAGVSRAMLLRLFLAMEKGRHMEYECPYLVYVPVVAFRLEPKDGKGVFAVDGELMVSEAVQGQVHPNYFWMVSGCVEPPPSWKPQQMPPPEEPL

System: neuron
Experiment: quantification of 15R-LXA4, RvE1, RvD1 in primary cells (LC-MS/MS)
Format: cell-based, C57BL/6 mice
Parameters: unit not given here
Conditions: replicates
Experimental: Lipid mediators metabololipidomics were performed according to previously described procedures with minor modifications[4],[30]. To confirm the biosynthesis of lipid mediators by recombinant COX2 treated with N-AS or aspirin, 10 U of human recombinant COX2 (Cayman, 60122) was incubated in the presence of 500 μM aspirin (Sigma-Aldrich, A5376) or N-AS (Sigma-Aldrich, 01912) at 37 °C for 30 min. The enzyme was filtered with a Microcon column (Millipore) to remove unreacted aspirin or N-AS and was then resuspended in 0.1 M Tris-HCl (pH 8.0). Next, 500 μM phenol (Sigma-Aldrich) and 1 μM hematin-porcine (Sigma-Aldrich) were added immediately before incubation with 100 μM AA, EPA or DHA (Cayman) at 37 °C for 2 h, respectively. The mixtures were incubated with 30 U of human 5-LOX (Cayman, 60402) containing 2 mM CaCl2 (Sigma-Aldrich), 1 mM ATP (Amresco) and 5 μM 13-HpODE (Cayman) as activators. Also, to validate the importance of residue S565 for N-AS-acetylation of COX2 and production of SPMs, 10 U of the COX2 S565A mutant was used in the above-described method. In addition, to confirm SPM generation in neurons and microglia, these cells were treated with Aβ and sonicated in neuronal and glial culture medium. […] To evaluate the relationship of N-AS and SPM production in microglia, microglia were isolated from WT, APP/PS1, and APP/PS1 treated with N-AS mice at 9 months of age. The microglia were sonicated and resuspended in microglial culture medium. The supernatants were incubated with 100 μM AA, EPA, and DHA (Cayman) at 37 °C for 2 h. A 50 μl aliquot of the mixture from each cell lysate was added to a 250 μl aliquot of 1 ng ml^−1 of 15S-LXA4-d5 (internal standard, Cayman) methanol solution. After vortexing for 10 min and centrifuging at 15,974×g for 5 min, the supernatant was subjected to the analysis of the lipid mediators using an Agilent 6470 Triple Quad LC-MS/MS system (Agilent) coupled to an Agilent 1290 HPLC system. Chromatographic separation was achieved using a Synergi Polar RP (4 μm, 2.0 mm i.d. × 150 mm, Phenomenex). Analytes were eluted with a mobile phase consisting of water: formic acid (100:0.1 v/v) (phase A) and methanol: formic acid (100:0.1 v/v) (phase B) in gradient elution mode for 23 min a flow rate of 0.2 ml min^−1. The elution gradient was as follows: from 0 to 0.1 min the content of phase A was 37% and the content of phase A was decreased to 10% and maintained for 5.5 min. The content of phase A was increased back to 37% at 6.0 min and maintained for 23 min. Quantification was carried out using MRM in negative ionization mode and collision energy of 10–15 eV. The mass transition from Q1 to Q3 is shown in Supplementary Table 2. In this study, the peak areas for all components were automatically integrated using MassHunter B 06.00.
To confirm the generation and roles of N-AS in neurons, cells from E18 C57BL/6 mice were prepared as previously described. Cortices were dissected and then dissociated followed by incubation in papain (Worthington) at 37 °C for 15 min. Neurons were plated on poly-L-lysine-coated coverslips with neuronal culture medium, serum-free Neurobasal medium (Gibco) containing 2% B27 supplements (Gibco), 1 mM Glutamax supplement (Gibco), and 100 U ml^−1 streptomycin/ 100 U ml^−1 penicillin (Gibco) at 37 °C in a humidified atmosphere of 5% CO2. […] Primary astrocyte cultures were prepared from C57BL/6 mice as described previously. In brief, after removal of the meninges, postnatal day 7 (P7) mouse brain tissues were minced and incubated in a rocking water bath at 37 °C for 30 min in the presence of 0.25% trypsin-EDTA (Sigma-Aldrich). Enzyme-digested dissociated cells were triturated with astrocyte-specific medium (DMEM/F12 containing 10% FBS and 1% penicillin-streptomycin) and centrifuged at 155×g for 8 min. The pellet was resuspended in astrocyte-specific medium and passed through a 40-μm cell strainer. […]

Molecule	15R-LxA4 (Fig 3i) (Ab + supplement)	RvD1 (Fig 3i) (Ab + supplement)	RvE1 (Fig 3i) (Ab + supplement)	15R-LxA4 (Fig 3i) (Ab, no supplement)	RvD1 (Fig 3i) (Ab, no supplement)	RvE1 (Fig 3i) (Ab, no supplement)
CC(=O)SCCNC(=O)CCNC(=O)[C@H](O)C(C)(C)COP(=O)(O)OP(=O)(O)OC[C@H]1O[C@@H](n2cnc3c(N)ncnc32)[C@H](O)[C@@H]1OP(=O)(O)O [Acetyl-CoA, acetyl-CoA]	0.02549 and 0.02793 and 0.0321 and 0.02233 and 0.02865 and 0.02722	0.01313 and 0.01214 and 0.01403 and 0.01264 and 0.01308 and 0.01333	0.01432 and 0.01422 and 0.01286 and 0.01427 and 0.01354 and 0.01357	–	–	–
CCCCCCCCCCCCC/C=C/[C@@H](O)[C@H](CO)NC(C)=O [N-AS, N-((2S,3R,E)-1,3-Dihydroxyoctadec-4-en-2-yl)acetamide]	3.35 and 3.4991 and 3.7074 and 3.111 and 3.589 and 3.409	0.555 and 0.7676 and 0.6961 and 0.6613 and 0.7318 and 0.6787	3.2 and 3.853 and 3.712 and 3.527 and 3.7827 and 3.619	–	–	–
CCCCCCCCCCCCC/C=C/[C@@H](O)[C@@H](N)CO [Sph, sphingosine]	0.02593 and 0.02461 and 0.02134 and 0.02662 and 0.02525 and 0.02398	0.01101 and 0.01211 and 0.01321 and 0.01156 and 0.01266 and 0.01239	0.01121 and 0.01127 and 0.01125 (2×) and 0.01124 and 0.01126	–	–	–
Ab: Aβ 1–42 (Invitrogen, 03112) used to induce an AD environment in cells	–	–	–	0.02346 and 0.02267 and 0.02051 and 0.02367 and 0.02325 and 0.02209	0.01315 and 0.01104 and 0.01107 and 0.0121 and 0.01106 and 0.01158	0.0152 and 0.01424 and 0.01723 and 0.01472 and 0.01573 and 0.01598
B1	3.266 and 3.3679 and 3.485 and 3.078 and 3.454 and 3.282	0.5366 and 0.8616 and 0.7359 and 0.6991 and 0.7987 and 0.7175	3.815 and 3.7466 and 3.98 and 3.781 and 3.863 and 3.88	–	–	–
